Assay results: patent publication US20260191861A1, “INFLAMMASOME AND VEGF INHIBITION FOR RETINAL VASCULAR DISEASES” (University of Virginia Patent Foundation, priority 2022, published 2026)

Key:
[1] = test system: participants with diabetic macular edema; experiment: Visual acuity (VALS) compared with synthetic controls from the DRCR.net Protocol T study (IPTW, propensity score matching, GEE); type: in vivo, human; conditions: for Model-based contrast: change in visual acuity, Lamivudine vs. Aflibercept / Model-based contrast: change in visual acuity, Lamivudine vs. Bevacizumab / Model-based contrast: change in visual acuity, Lamivudine vs. Ranibizumab: IPTW model; for Mixed-effect model: change in visual acuity from baseline, Lamivudine vs Placebo / Mixed-effect model: change in visual acuity from baseline, Lamivudine vs. Aflibercept / Mixed-effect model: change in visual acuity from baseline, Lamivudine vs. Bevacizumab / Mixed-effect model: change in visual acuity from baseline, Lamivudine vs. Ranibizumab: propensity score matching
From the text: The second analysis included participants from the lamivudine versus placebo trial, along with a synthetic comparator created using data from the DRCR.net Protocol T study. The source of the data is DRCR.net (2018) A Comparative Effectiveness Study of Intravitreal Aflibercept, Bevacizumab and Ranibizumab for Diabetic Macular Edema, retrieved from https://public.jaeb.org/drcrnet/stdy/download/206. The analyses, content, and conclusions presented herein are solely the responsibility of the authors and have not been reviewed or approved by DRCR.net.
Inclusion criteria for participants from the DRCR.net Protocol T study were based on their similarity to the lamivudine versus placebo trial design. This involved selecting only patients with type 2 diabetes, study eyes with a baseline VALS<69, and complete follow-up visual acuity measurements at weeks 4 and 8.
(§1) Propensity score methods were used to select DRCR.net Protocol T study participants similar to lamivudine-treated patients. Inverse probability treatment weights (IPTW) and propensity score matching were used. To estimate the IPTW weights, a multinomial logistic regression was used to estimate propensity scores using important predictors including baseline visual acuity and baseline central subfield thickness along with age, gender, and duration of diabetes. Weights were calculated as the reciprocal of the estimated propensity score of the actual treatment received. Weights were then truncated at the 99th percentile. For the propensity score matched analysis, lamivudine-treated patients were matched to each DRCR.net Protocol T treatment arm (aflibercept, bevacizumab, ranibizumab) and placebo group, separately. Due to the limited sample size for matching within each group, propensity score models included the most important predictors of acuity change including baseline visual acuity, age and duration of diabetes.
(§2) For the IPTW analysis, a mixed-effects weighted model was fit with subject-specific random effects. […] The model's estimates, confidence intervals (CI), and P values were reported for each predictor. Additionally, model-based contrasts were conducted to compare the change in VALS from baseline between lamivudine and the Protocol T treatments.
For each propensity score matched group (e.g., lamivudine-bevacizumab, lamivudine-aflibercept), a mixed effect model was fit estimating the change in visual acuity from baseline. Subject specific random effect was included along with fixed effect predictors: treatment group, baseline VALS, central subfield thickness, eye (left vs right), age, sex, race and type 2 diabetes duration.
(§3) Secondary outcomes included the change in central subfield thickness, the percentage of eyes with an improvement in VALS of 15 or more, the correlation between improvements in visual acuity and central subfield thickness, and systemic and ocular adverse events. Change in central subfield thickness was estimated using mixed-effects models, similar to the VALS analysis. To analyze a VALS improvement of at least 15 letters, logistic regression using generalized estimating equations (GEEs) was specified with an exchangeable correlation matrix. Model-based contrasts were estimated to make pairwise treatment comparisons.

[2] = test system: participants with diabetic macular edema; experiment: Retinal central subfield thickness by spectral-domain OCT, including synthetic controls from DRCR.net Protocol T; type: in vivo, human
Method: as §1, §2, §3
In all consultations, patients underwent tomography with the Spectralis device (Heidelberg) under mydriasis. The acquisition protocol was the 6×6 mm region centered on the fovea. Data analysis from SD-OCT was restricted to the central field (1 mm in diameter) Intravitreous Injection of Anti-VEGF

In the case of `Nc1ccn([C@@H]2CS[C@H](CO)O2)c(=O)n1` [Lamivudine], the “Model-based contrast: change in visual acuity, Lamivudine vs. Aflibercept” value [1] was 3.73, the “Model-based contrast: change in visual acuity, Lamivudine vs. Bevacizumab” value [1] was 6.83 and the “Model-based contrast: change in visual acuity, Lamivudine vs. Ranibizumab” value [1] was 5.04. For the same compound, the “Mixed effect model: change from baseline visual acuity, treatment estimate (ref: Placebo)” value (“Mixed effect model: change” for short) ([1]; IPTW model with synthetic controls) was 12.15, the “Mixed effect model: change” value ([1]; IPTW model with synthetic controls, listed as lamivudine) was 12.2 and the “Model-based contrast: change in visual acuity, Lamivudine vs. Aflibercept” value ([1]; listed as lamivudine) was 3.7. The “Model-based contrast: change in visual acuity, Lamivudine vs. Bevacizumab” value ([1]; listed as lamivudine) was 6.8, the “Model-based contrast: change in visual acuity, Lamivudine vs. Ranibizumab” value ([1]; listed as lamivudine) was 5.0 and the “Mixed effect model: change” value ([1]; Original (unweighted) model with synthetic controls) was 11.19. For the same compound, the “Mixed-effect model: change in visual acuity from baseline, Lamivudine vs Placebo” value [1] was 10.88, the “Mixed-effect model: change in visual acuity from baseline, Lamivudine vs. Aflibercept” value [1] was 2.33 and the “Mixed-effect model: change in visual acuity from baseline, Lamivudine vs. Bevacizumab” value [1] was 8.95. The “Mixed-effect model: change in visual acuity from baseline, Lamivudine vs. Ranibizumab” value [1] was 7.24, the “Mixed-effect model: change in visual acuity from baseline, Lamivudine vs Placebo” value ([1]; listed as lamivudine) was 10.9 and the “Mixed-effect model: change in visual acuity from baseline, Lamivudine vs. Aflibercept” value ([1]; listed as lamivudine) was 2.3. The “Mixed-effect model: change in visual acuity from baseline, Lamivudine vs. Bevacizumab” value ([1]; listed as lamivudine) was 9, the “Mixed-effect model: change in visual acuity from baseline, Lamivudine vs. Ranibizumab” value ([1]; listed as lamivudine) was 7.3 and the “IPTW mixed-effect model: change in central subfield thickness, Treatment × week [8] estimate” value ([2]; IPTW model, interaction term) was 41.98 μm. The “IPTW mixed-effect model: change in central subfield thickness from baseline, treatment estimate (ref = Placebo)” value ([2]; IPTW model, main effect (week 4)) was −48.84 μm, the “IPTW contrast: change in central subfield thickness, Lamivudine vs Bevacizumab” value ([2]; week 4) was 17.5 μm and the “IPTW contrast: change in central subfield thickness, Lamivudine vs Placebo” value ([2]; week 4) was −48.84 μm. For the same compound, the “IPTW contrast: change in central subfield thickness, Lamivudine vs. Aflibercept” value ([2]; week 4) was 55.49 μm, the “IPTW contrast: change in central subfield thickness, Lamivudine vs. Ranibizumab” value ([2]; week 4) was 64.83 μm and the “IPTW contrast: change in central subfield thickness, Lamivudine vs. Aflibercept” value ([2]; week 4, listed as lamivudine) was 55 μm. The “IPTW contrast: change in central subfield thickness, Lamivudine vs. Ranibizumab” value ([2]; week 4, listed as lamivudine) was 65 μm, the “IPTW contrast: change in central subfield thickness, Lamivudine vs Bevacizumab” value ([2]; week 8) was −15.34 μm and the “IPTW contrast: change in central subfield thickness, Lamivudine vs Placebo” value ([2]; week 8) was −6.86 μm. For the same compound, the “IPTW contrast: change in central subfield thickness, Lamivudine vs. Aflibercept” value ([2]; week 8) was 28.93 μm, the “IPTW contrast: change in central subfield thickness, Lamivudine vs. Ranibizumab” value ([2]; week 8) was 31.81 μm and the “Propensity score matched contrast: change in central subfield thickness, Lamivudine vs. Aflibercept” value ([2]; week 4) was 92.6 μm. The “Propensity score matched contrast: change in central subfield thickness, Lamivudine vs. Bevacizumab” value ([2]; week 4) was 12.6 μm, the “Propensity score matched contrast: change in central subfield thickness, Lamivudine vs. Placebo” value ([2]; week 4) was −47.7 μm and the “Propensity score matched contrast: change in central subfield thickness, Lamivudine vs. Ranibizumab” value ([2]; week 4) was 115.7 μm. The “Propensity score matched contrast: change in central subfield thickness, Lamivudine vs. Aflibercept” value ([2]; week 4, listed as lamivudine) was 93 μm, the “Propensity score matched contrast: change in central subfield thickness, Lamivudine vs. Ranibizumab” value ([2]; week 4, listed as lamivudine) was 116 μm and the “Propensity score matched contrast: change in central subfield thickness, Lamivudine vs. Aflibercept” value ([2]; week 8) was 21.2 μm. The “Propensity score matched contrast: change in central subfield thickness, Lamivudine vs. Bevacizumab” value ([2]; week 8) was −63.4 μm, the “Propensity score matched contrast: change in central subfield thickness, Lamivudine vs. Placebo” value ([2]; week 8) was −38.1 μm and the “Propensity score matched contrast: change in central subfield thickness, Lamivudine vs. Ranibizumab” value ([2]; week 8) was 37.1 μm. For the same compound, the “Mixed-effect model: change in central subfield thickness, Treatment × week [8] estimate” value ([2]; unweighted model, interaction term) was 3.8 μm, the “Mixed-effect model: change in central subfield thickness from baseline, treatment estimate (ref = Placebo)” value ([2]; unweighted model, main effect (week 4)) was −44.91 μm and the “Contrast: change in central subfield thickness, Lamivudine vs Bevacizumab” value ([2]; unweighted model, week 4) was 30.65 μm. The “Contrast: change in central subfield thickness, Lamivudine vs Placebo” value ([2]; unweighted model, week 4) was −44.91 μm, the “Contrast: change in central subfield thickness, Lamivudine vs. Aflibercept” value ([2]; unweighted model, week 4) was 69.64 μm and the “Contrast: change in central subfield thickness, Lamivudine vs. Ranibizumab” value ([2]; unweighted model, week 4) was 77.22 μm. For the same compound, the “Contrast: change in central subfield thickness, Lamivudine vs Bevacizumab” value ([2]; unweighted model, week 8) was −50.42 μm, the “Contrast: change in central subfield thickness, Lamivudine vs Placebo” value ([2]; unweighted model, week 8) was −41.1 μm and the “Contrast: change in central subfield thickness, Lamivudine vs. Aflibercept” value ([2]; unweighted model, week 8) was −1.39 μm. For the same compound, the “Contrast: change in central subfield thickness, Lamivudine vs. Ranibizumab” value ([2]; unweighted model, week 8) was −4.66 μm and the “percentage of eyes with VALS improvement of 15 or more that had minimal improvement in central subfield thickness (≤50 μm)” value ([2]; week 8, lamivudine group) was 64%.
